Measured values taken from patent publication USRE46228E1, “Pigmentation-regulating compounds” (LIPOTEC, S.A., priority 2007, dated 2016).

Key:
[1] = tested on: human melanocytes; experiment: Depigmenting efficacy in human melanocyte cultures (microscopy count of melanin-containing cells); assay type: cell-based; details: 0.1 mM compound, 5 days, fresh medium daily; normalized to control sample (0)
Method: The melanin content was is seen directly by means of microscopy using a 40 magnification lens. The depigmenting efficacy was is determined by counting the number of cells containing melanin and the total number of cells, and the obtained results were are normalized in relation to the whitening efficacy of a control sample.

[2] = tested on: mushroom tyrosinase; experiment: Activity assay on the action of mushroom tyrosinase in vitro (L-Dopa substrate, melanin read at 492 nm); assay type: biochemical; details: melanin formed normalized to control sample (100), 10 min at 37° C.
Method: The assay is performed in 96 well plates and the samples are performed in triplicate. The control sample contains 80 μL of buffer (150 mM HEPES), 10 μL of mushroom tyrosinase of 10 μg/μL and 10 μL of 10 mM L-Dopa substrate. […] The samples thus prepared are incubated at 37° C. for 10 minutes. Then the plate containing the samples is cooled for 5 minutes on ice to stop the enzymatic reaction. To quantify the melanin produced it is measured in the plate reader at a length of 492 nm.

[3] = target: T1, endogenous tyrosinase extracted from human melanocytes (Homo sapiens, UniProt P14679); experiment: Activity assay on endogenous tyrosinase extracted from human melanocytes (L-Dopa substrate, absorbance 475 nm); assay type: biochemical; details: 1 mM compound; 30 min incubation with enzyme; one hour after adding L-Dopa; relative to control (100)
T1 construct: The endogenous tyrosine of the human melanocytes seeded at a confluence of 95% is extracted; endogenous in cells; host or cells: human melanocytes (cultured; extract used)
T1 sequence (P14679 19-529): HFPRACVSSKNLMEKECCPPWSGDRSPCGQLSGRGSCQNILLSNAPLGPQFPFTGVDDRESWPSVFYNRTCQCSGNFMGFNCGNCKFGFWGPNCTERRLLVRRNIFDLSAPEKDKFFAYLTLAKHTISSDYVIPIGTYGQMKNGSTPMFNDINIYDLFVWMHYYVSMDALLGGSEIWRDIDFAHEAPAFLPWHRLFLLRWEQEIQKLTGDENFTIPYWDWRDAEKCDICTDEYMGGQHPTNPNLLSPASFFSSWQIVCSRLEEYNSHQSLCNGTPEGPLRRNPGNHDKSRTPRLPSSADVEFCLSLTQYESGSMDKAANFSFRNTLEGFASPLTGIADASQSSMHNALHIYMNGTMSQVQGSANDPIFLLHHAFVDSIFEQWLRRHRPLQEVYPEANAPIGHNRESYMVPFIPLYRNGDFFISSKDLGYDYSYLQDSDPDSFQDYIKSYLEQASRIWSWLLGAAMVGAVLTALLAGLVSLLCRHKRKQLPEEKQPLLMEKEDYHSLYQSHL
Method: The human melanocytes are cultured in DMEM medium supplemented with 10% FBS, 1% penicillin/streptomycin and 100 nM PMA. […] The endogenous […] of the human melanocytes seeded at a confluence of 95% is extracted. The assay is performed after extracting and quantifying the enzymatic content. […] To check the enzymatic activity after the treatment, the synthetic L-Dopa (10 mM) substrate is added, measuring absorbance at a wavelength of 475 nm one hour after having added L-Dopa. This measurement allows evaluating the melanin content produced.

[4] = tested on: human keratinocytes; experiment: Photoprotecting efficacy in human keratinocyte cultures (solar simulation irradiation, Neutral Red viability); assay type: cell-based; details: 150 μg/mL
Method: The human keratinocytes were maintained in culture for 24 hours in 96 well plates to form monolayers and the cells were pre-incubated in the dark with 150 μg/mL of 7-methoxy-6-palmitoyl-2,2-dimethylchromane or saline phosphate buffer (control) for one hour at 37° C. and humidified air with 5% CO2. The cells were then irradiated with a solar simulation lamp with an energy of 37 J/cm^2 at room temperature for 150 minutes. A control plate was maintained in the dark for the same time at room temperature. The medium of the cells was replaced after the irradiation period with fresh medium and the cells were incubated for 24 additional hours. The cell viability was determined by means of the Neutral Red dye, measuring the optical density at 540 nm in a spectrophotometer.
The photoprotecting efficacy was determined by comparing the viability obtained in the cells treated with 7-methoxy-6-palmitoyl-2,2-dimethylchromane in relation to the response of the irradiated and non-irradiated control cells.

% MELANIN ([2]; 0.1 mM compound) | % MELANIN [3] | % MELANIN ([2]; 1 mM compound) | SMILES | % DEPIGMENTING EFFICACY [1] | PHOTOPROTECTTNG EFFICACY ([4]; viability of treated cells compared with irradiated and non-irradiated control cells) | viability at 150 µg/mL ([4]; Homo sapiens, Keratinocyte, light or radiation study, 1 h pre-incubation, irradiated 37 J/cm^2 for 150 min, 24 h later, non-irradiated control 100%, irradiated control 13.8%, read-out: CELL VIABILITY)
44.5% |  |  | O=c1cc(CO)occ1O [Kojic acid, reference compound] | 30.2% |  | 
 | 57.0% | 63.0% | CCCCCCCCCCCCCCCC(=O)c1cc2c(cc1OC)OC(C)(C)CC2 [7-methoxy-6-palmitoyl-2,2-dimethylchromane] | 45.9% | 254.9% | 49.1%
 | 79.8% | 96.6% | COc1cc2c(cc1O)CCC(C)(C)O2 [Lipochroman-6, 6-hydroxy-7-methoxy-2,2-dimethylchromane, reference compound] |  |  | 
